Test results taken from ChEMBL document CHEMBL1122865 (J Med Chem, 1985).

Tests used:
[1] = biological target: D(1A) dopamine receptor (Rattus norvegicus) (UniProt P18901); assay: Tested for its ability to inhibit rat caudate adenylate cyclase (Dopamine receptor D1) at 10 uM
Oryctolagus cuniculus [2] = species on record: Oryctolagus cuniculus; assay: Compound was tested for DA agonistic activity in the isolated perfused rabbit ear artery.; format: functional; conditions: read-out: ED50 (the source's name)
[3] = biological target: D(1A) dopamine receptor (Rattus norvegicus) (UniProt P18901); assay: Tested for its ability to stimulate rat caudate adenylate cyclase (Dopamine receptor D1) at 10 uM
[4] = biological target: D(2) dopamine receptor (Bos taurus) (UniProt P20288); assay: Ability to inhibit specific [3H]spiroperidol binding to bovine anterior pituitary homogenate, at 10 uM
[5] = biological target: D(2) dopamine receptor (Bos taurus) (UniProt P20288); assay: Compound was tested for its ability to inhibit specific [3H]spiroperidol binding to bovine anterior pituitary homogenate, at 10 uM
Oryctolagus cuniculus [6] = species on record: Oryctolagus cuniculus; assay: The compound was tested for DA agonistic activity in the isolated perfused rabbit ear artery.; format: functional; conditions: read-out: ED50 (the source's name)

Sequence of D(2) dopamine receptor (Bos taurus) (P20288 whole entry, the tested form may be a part): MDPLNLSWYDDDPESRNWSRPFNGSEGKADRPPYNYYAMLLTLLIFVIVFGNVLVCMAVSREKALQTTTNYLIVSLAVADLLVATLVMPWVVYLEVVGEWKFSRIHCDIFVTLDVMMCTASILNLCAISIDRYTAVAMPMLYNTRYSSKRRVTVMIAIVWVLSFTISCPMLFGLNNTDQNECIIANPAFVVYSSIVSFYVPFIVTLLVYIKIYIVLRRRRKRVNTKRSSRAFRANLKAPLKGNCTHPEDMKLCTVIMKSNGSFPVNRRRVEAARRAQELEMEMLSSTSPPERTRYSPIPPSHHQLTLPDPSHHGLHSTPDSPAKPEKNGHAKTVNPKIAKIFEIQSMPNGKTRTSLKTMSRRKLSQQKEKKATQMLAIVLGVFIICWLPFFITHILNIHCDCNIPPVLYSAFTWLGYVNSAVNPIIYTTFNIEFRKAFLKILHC
Sequence of D(1A) dopamine receptor (Rattus norvegicus) (P18901 whole entry, the tested form may be a part): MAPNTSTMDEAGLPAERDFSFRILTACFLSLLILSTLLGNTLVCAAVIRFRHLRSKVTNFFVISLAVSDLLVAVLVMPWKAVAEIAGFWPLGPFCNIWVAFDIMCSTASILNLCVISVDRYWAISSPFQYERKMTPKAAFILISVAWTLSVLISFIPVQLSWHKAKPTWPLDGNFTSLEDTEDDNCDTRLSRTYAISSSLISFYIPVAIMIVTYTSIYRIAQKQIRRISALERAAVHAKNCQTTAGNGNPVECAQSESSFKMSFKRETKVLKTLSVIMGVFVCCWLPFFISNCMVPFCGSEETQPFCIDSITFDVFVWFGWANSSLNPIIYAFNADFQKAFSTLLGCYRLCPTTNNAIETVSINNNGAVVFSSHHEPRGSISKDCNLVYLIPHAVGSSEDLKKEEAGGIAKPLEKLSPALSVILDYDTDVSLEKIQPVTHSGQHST

inhibition [1] [%]	EC50 (Oryctolagus cuniculus [2]) [nM]	Stimulation [3] [%]	Displacement [4] [%]	Kb [5] [nM]	Compound	EC50 (Oryctolagus cuniculus [6]) [nM]
0		4	30		CCCN(CCC)CCc1cccc2nc(O)ccc12	
6	128	0	72	2020	CCCN(CCc1ccccc1)CCc1ccc(O)c2nc(O)ccc12	
0		3	6		CCCN(CCC)CCc1ccc(OC)c2nc(O)ccc12	
0	12.3	0	78	770	CCCN(CCc1ccc(O)cc1)CCc1ccc(O)c2nc(O)ccc12	
0	493	1	19		CCCN(CCC)CCc1ccc(O)c2[nH]c(=O)ccc12	

The next lines start with the compound.

Compound	inhibition [1] [%]	EC50 (Oryctolagus cuniculus [2]) [nM]	Stimulation [3] [%]	Displacement [4] [%]	Kb [5] [nM]	EC50 (Oryctolagus cuniculus [6]) [nM]
NCCc1ccc(O)c2nc(O)ccc12	1	140	27	56	4040	
NCCc1cccc2nc(O)ccc12	5		1	21		
NC1CCc2cc(O)c(O)cc2C1 (stereo not given)						4.6
NCCc1ccc(O)c(O)c1 [DOPAMINE]						37
COc1ccc(CCNCCc2ccccc2)c2ccc(O)nc12	0		0	9		
CCCN(CCC)CCc1ccc(O)c2c1CCC(=O)N2	0	252	1	40	15100	
Oc1ccc(CCNCCc2ccc(O)c3nc(O)ccc23)cc1	6	136	2	42		
COc1ccc(CCN)c2ccc(O)nc12	1		3	9		
